{"source": "ChEMBL document CHEMBL1156538", "about": "“Microwave-assisted solid phase synthesis, PEGylation, and biological activity studies of glucagon-like peptide-1(7-36) amide” (2008)", "format_in_all_cases": "functional", "key": {"[1]": {"tested_on": "Mus musculus", "experiment": "Decrease in blood glucose level in Kunming mouse at 25 nmol/kg, ip administered 90 mins before 18 mmol/kg, ip glucose injection after 15 mins"}, "[2]": {"tested_on": "Mus musculus", "experiment": "Decrease in blood glucose level in Kunming mouse at 25 nmol/kg, ip administered 90 mins before 18 mmol/kg, ip glucose injection after 60 mins"}, "[3]": {"tested_on": "Mus musculus", "experiment": "Decrease in blood glucose level in Kunming mouse at 25 nmol/kg, ip administered simultaneously with glucose at 18 mmol/kg, ip after 30 mins"}, "[4]": {"tested_on": "Mus musculus", "experiment": "Decrease in blood glucose level in Kunming mouse at 25 nmol/kg, ip administered 90 mins before 18 mmol/kg, ip glucose injection after 30 mins"}, "[5]": {"tested_on": "Mus musculus", "experiment": "Decrease in blood glucose level in Kunming mouse at 25 nmol/kg, ip administered simultaneously with glucose at 18 mmol/kg, ip after 60 mins"}, "[6]": {"tested_on": "Mus musculus", "experiment": "Decrease in blood glucose level in Kunming mouse at 25 nmol/kg, ip administered simultaneously with glucose at 18 mmol/kg, ip after 45 mins"}, "[7]": {"tested_on": "Mus musculus", "experiment": "Decrease in blood glucose level in Kunming mouse at 25 nmol/kg, ip administered 90 mins before 18 mmol/kg, ip glucose injection after 45 mins"}, "[8]": {"tested_on": "Mus musculus", "experiment": "Decrease in blood glucose level in Kunming mouse at 25 nmol/kg, ip administered simultaneously with glucose at 18 mmol/kg, ip after 15 mins"}}, "data": [{"smiles": "CC[C@H](C)[C@H](NC(=O)[C@H](Cc1ccccc1)NC(=O)[C@H](CCC(=O)O)NC(=O)[C@H](CCCCN)NC(=O)[C@H](C)NC(=O)[C@H](C)NC(=O)[C@H](CCC(N)=O)NC(=O)CNC(=O)[C@H](CCC(=O)O)NC(=O)[C@H](CC(C)C)NC(=O)[C@H](Cc1ccc(O)cc1)NC(=O)[C@H](CO)NC(=O)[C@H](CO)NC(=O)[C@@H](NC(=O)[C@H](CC(=O)O)NC(=O)[C@H](CO)NC(=O)[C@@H](NC(=O)[C@H](Cc1ccccc1)NC(=O)[C@@H](NC(=O)CNC(=O)[C@H](CCC(=O)O)NC(=O)CNC(=O)[C@@H](N)Cc1cnc[nH]1)[C@@H](C)O)[C@@H](C)O)C(C)C)C(=O)N[C@@H](C)C(=O)N[C@@H](Cc1c[nH]c2ccccc12)C(=O)N[C@@H](CC(C)C)C(=O)N[C@H](C(=O)N[C@@H](CCCCN)C(=O)NCC(=O)N[C@@H](CCCNC(=N)N)C(N)=O)C(C)C", "values": [{"measurement": "Activity", "setting": "[1]", "value": 17.92, "unit": "mmol/L"}, {"measurement": "Activity", "setting": "[2]", "value": 9.18, "unit": "mmol/L"}, {"measurement": "Activity", "setting": "[3]", "value": 8.27, "unit": "mmol/L"}, {"measurement": "Activity", "setting": "[4]", "value": 14.67, "unit": "mmol/L"}, {"measurement": "Activity", "setting": "[5]", "value": 7.18, "unit": "mmol/L"}, {"measurement": "Activity", "setting": "[6]", "value": 7.7, "unit": "mmol/L"}, {"measurement": "Activity", "setting": "[7]", "value": 10.23, "unit": "mmol/L"}, {"measurement": "Activity", "setting": "[8]", "value": 12.98, "unit": "mmol/L"}]}]}
